Experimental data reported in paper PMC8176444 (Molecular Biology Reports, 2021).

Target: T1, angiotensin-converting enzyme (ACE) (Ovis aries, UniProt A0ACI6QSL6)
T1 sequence (A0ACI6QSL6 34-1310): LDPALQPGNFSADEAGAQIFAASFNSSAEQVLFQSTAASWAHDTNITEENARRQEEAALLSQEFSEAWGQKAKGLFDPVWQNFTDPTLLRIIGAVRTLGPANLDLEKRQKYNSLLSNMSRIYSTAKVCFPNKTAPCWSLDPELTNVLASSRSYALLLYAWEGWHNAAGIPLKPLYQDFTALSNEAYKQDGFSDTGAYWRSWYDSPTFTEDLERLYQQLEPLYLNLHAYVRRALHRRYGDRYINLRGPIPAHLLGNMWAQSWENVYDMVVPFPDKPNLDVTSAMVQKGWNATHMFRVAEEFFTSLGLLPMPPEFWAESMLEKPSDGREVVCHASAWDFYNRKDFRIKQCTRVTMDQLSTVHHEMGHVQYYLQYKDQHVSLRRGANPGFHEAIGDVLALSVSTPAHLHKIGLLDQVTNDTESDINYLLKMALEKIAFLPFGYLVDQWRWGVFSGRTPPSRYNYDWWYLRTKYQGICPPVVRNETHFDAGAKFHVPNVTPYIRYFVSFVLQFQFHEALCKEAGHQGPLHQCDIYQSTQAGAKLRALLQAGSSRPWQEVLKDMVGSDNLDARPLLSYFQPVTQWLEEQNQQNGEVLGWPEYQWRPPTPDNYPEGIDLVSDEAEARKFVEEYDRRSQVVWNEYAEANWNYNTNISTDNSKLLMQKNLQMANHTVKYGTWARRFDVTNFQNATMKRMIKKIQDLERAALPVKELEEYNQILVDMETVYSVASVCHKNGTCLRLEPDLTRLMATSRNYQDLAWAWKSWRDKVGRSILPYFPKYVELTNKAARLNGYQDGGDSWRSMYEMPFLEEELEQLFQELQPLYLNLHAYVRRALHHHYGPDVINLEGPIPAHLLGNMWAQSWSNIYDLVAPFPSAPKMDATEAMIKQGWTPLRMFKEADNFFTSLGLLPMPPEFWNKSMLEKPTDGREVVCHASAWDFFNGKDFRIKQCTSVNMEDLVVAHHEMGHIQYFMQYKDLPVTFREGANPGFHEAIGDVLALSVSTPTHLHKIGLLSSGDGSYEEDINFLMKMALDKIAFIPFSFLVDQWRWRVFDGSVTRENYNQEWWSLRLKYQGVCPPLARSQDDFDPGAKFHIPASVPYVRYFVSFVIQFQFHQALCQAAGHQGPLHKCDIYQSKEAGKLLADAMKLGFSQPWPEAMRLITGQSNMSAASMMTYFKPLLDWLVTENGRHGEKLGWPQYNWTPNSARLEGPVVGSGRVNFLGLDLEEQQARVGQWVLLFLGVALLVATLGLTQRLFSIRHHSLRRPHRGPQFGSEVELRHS
Experiment: spectrophotometric FAPGG hydrolysis assay at […] nm
Format: biochemical

C[C@H](CS)C(=O)N1CCC[C@H]1C(=O)O [captopril]
Ki: 0.39 nM
